{
  "source": "patent US20190275040A1",
  "about": "“COMPOUNDS AND METHODS FOR TREATING OR PREVENTING ALZHEIMER'S DISEASE” (YALE UNIVERSITY, priority 2016, published 2019)",
  "key": {"[1]": {"tested_on": "APP/PS1 transgenic mice", "assay": "Learning and memory (novel object recognition, Morris water maze) in APP/PS1 transgenic mice", "format": "in vivo, mouse", "conditions": "12 month APP/PS1 mice, 25 mg/kg/d minipump i.p. infusion, 3-6 weeks", "description": "FIG. 5A plots the time mice spent interacting with a familiar and a novel object. Mean±SEM, n=10-16 mice. *, p<0.05; **, p<0.01 by two-way ANOVA, Sidak's multiple comparisons test. FIG. 5B depicts spatial learning and memory as examined by the Morris-Water-Maze after 30 swim trials to a hidden platform. A 60 second probe trial was performed 24 hours after completion of training. Time spent in the quadrant where the hidden platform had been located. Mean±SEM of n=7-23 mice. *, p<0.05; ***, p<0.001. Dashed lines in FIGS. 5A-5B are chance (no memory). […]\nThe efficacy of PF-719 Pyk2 inhibitor to rescue AD transgenic phenotypes was tested by infusion for 6 weeks in 12 month APP/PS1 transgenic with pre-established memory deficits and WT mice, similar to the SAM 923 and Pyk2−/− experiments. […] The brains of these mice are analyzed for synapse density, gliosis and Aβ. […]\nMice were handled for five minutes a day for five days prior to experiment to reduce anxiety. […] Object choice was pseudorandom; the object was recorded as the familiar object for each animal. The mouse was then replaced in cage's center, not facing either object, and a total timer counted up to ten minutes. The mice were allowed to explore the object and the time it took to accumulate thirty seconds of total orofacial object exploration was recorded. […]"}, "[2]": {"target": "Fyn (Homo sapiens, UniProt P06241)", "sequence (P06241 whole entry, species assumed)": "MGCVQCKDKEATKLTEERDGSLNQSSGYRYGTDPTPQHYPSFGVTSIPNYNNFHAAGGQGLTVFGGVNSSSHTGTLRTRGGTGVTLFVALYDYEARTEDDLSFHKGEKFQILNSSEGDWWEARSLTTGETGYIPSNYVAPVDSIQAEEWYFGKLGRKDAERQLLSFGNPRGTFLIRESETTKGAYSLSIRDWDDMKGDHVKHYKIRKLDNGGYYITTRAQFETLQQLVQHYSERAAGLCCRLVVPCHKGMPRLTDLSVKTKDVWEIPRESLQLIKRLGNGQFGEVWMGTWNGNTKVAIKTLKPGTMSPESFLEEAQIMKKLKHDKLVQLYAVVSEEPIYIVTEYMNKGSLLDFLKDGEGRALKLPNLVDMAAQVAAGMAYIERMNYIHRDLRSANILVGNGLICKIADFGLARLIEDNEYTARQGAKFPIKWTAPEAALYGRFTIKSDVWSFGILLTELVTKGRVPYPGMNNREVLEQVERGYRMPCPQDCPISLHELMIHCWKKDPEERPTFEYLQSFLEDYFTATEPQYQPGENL", "conditions": "cited from earlier work"}, "[3]": {"target": "FAK (Homo sapiens, UniProt Q05397)", "sequence (Q05397 whole entry, species assumed)": "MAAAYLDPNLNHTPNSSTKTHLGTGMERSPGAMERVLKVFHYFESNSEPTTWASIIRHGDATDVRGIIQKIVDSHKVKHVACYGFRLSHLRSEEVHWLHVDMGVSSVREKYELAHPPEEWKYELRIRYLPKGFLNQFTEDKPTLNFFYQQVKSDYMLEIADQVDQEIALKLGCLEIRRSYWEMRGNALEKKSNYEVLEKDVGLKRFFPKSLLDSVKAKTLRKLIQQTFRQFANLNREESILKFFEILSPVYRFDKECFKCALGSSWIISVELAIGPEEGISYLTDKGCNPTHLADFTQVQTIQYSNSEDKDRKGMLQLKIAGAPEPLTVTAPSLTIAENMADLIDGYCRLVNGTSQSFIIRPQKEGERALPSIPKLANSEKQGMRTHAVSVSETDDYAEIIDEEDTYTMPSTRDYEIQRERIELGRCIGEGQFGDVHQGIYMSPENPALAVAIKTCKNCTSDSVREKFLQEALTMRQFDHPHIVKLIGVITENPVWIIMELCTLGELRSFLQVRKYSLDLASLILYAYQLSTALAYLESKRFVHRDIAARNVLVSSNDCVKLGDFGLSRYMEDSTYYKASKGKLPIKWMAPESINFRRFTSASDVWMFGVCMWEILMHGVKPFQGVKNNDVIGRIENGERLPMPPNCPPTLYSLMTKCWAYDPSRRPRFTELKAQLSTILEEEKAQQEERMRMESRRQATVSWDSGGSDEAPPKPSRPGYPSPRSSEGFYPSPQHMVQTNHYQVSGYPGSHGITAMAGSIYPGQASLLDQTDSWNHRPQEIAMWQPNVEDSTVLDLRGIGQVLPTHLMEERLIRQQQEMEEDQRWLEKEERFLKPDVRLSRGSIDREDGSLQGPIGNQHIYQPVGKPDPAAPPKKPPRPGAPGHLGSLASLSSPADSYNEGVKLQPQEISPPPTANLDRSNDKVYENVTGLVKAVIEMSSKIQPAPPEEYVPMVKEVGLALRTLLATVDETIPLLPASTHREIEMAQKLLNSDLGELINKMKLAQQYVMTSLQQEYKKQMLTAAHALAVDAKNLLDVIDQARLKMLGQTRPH", "conditions": "cited from earlier work"}},
  "data": [
    {"smiles": "CCOc1ccc2nc(SCc3nc(N)nc(N4CCOCC4)n3)sc2c1", "note": "[PF-719, 4-(((6-ethoxybenzo[d]thiazol-2-yl)thio)methyl)-6-morpholino-1,3,5-triazin-2-amine]", "values": [
      {"measurement": "learning and memory performance", "setting": "[1]", "value": "significantly greater than Vehicle/untreated levels"},
      {"measurement": "Ki", "setting": "[2]", "value": "> 1000", "unit": "nM"},
      {"measurement": "Ki", "setting": "[3]", "value": 450, "unit": "nM"}
    ]}
  ]
}
